According to patent US10421754B2, “Quinazoline derivative” (CSPC ZHONGQI PHARMACEUTICAL TECHNOLOGY (SHIJIAZHUANG) CO., …, priority 2014, dated 2019):

Experiments:
H292 = assay: In vitro cell experiment (MTT), H292; assay type: cell-based; details: NCI-H292, 72 h, human lung carcinoma cells (EGFR1 overexpressing)
Protocol: (§1) Cells in logarithmic growth phase were seeded at a certain density in a 96-well plate (200 μL/well). The cells were allowed to grow for 24 h and subsequently treated with different concentrations of drugs (including a blank group and a control group) and incubated for 72 h at 37° C. Each concentration in a given experiment was tested in triplicate. After 72 h of exposure, 20 μL of the MTT labeling reagent was added to the medium (the final concentration of MTT was 0.5 mg/mL), and the cells were incubated for additional 4 h at 37° C. Following this process, 180 μL of the medium was removed and 130 μL of DMSO was added to each well, or the medium was completely removed and 150 μL of DMSO was added to each well. Then the plate was shaken and mixed in a micro-oscillator. Finally the optical density (OD) of each sample was measured in a micro-plate reader at 550 nm. Cell inhibition rate was calculated according to the following formula: […]
(§2) According to cell inhibition rates, IC50 was calculated by LOGIT method. The experiments were repeated twice and the data was expressed as means±SD.

HCT116 = assay: In vitro cell experiment (MTT), HCT116; assay type: cell-based; details: HCT-116, 72 h, human colon carcinoma cells
Protocol: as §1, §2

A375 = assay: In vitro cell experiment (MTT), A375; assay type: cell-based; details: A-375, 72 h, human melanoma cells (KDR expressing)
Protocol: as §1, §2

Eca109 = assay: In vitro cell experiment (MTT), Eca109; assay type: cell-based; details: ECa-109, 72 h, human esophageal carcinoma cells
Protocol: as §1, §2

HUVEC = assay: In vitro cell experiment (MTT), HUVEC; assay type: cell-based; details: 72 h, human umbilical vein endothelial cell (KDR overexpressing)
Protocol: as §1, §2

HCC827 = assay: In vitro cell experiment (MTT), HCC827; assay type: cell-based; details: 72 h, human non-small cell lung carcinoma (EGFR1 19 exon mutation)
Protocol: as §1, §2

RET = RET (Homo sapiens, UniProt P07949); assay: In vitro enzyme experiment (ELISA), RET; assay type: biochemical; details: Poly (Glu, Tyr)4:1 substrate, 5 μM ATP
Protocol: RET: A receptor involved in thyroid cancer
(§3) ELISA: The enzyme plate was coated by enzyme reaction substrate (Poly (Glu, Tyr)4:1) at a density of 20 μg/ml. Then the enzyme, the sample and 5 μM ATP were mixed in the well to react. After the reaction, the substrate phosphorylation was detected by anti-phosphotyrosine monoclonal antibody (4G10). In the next step, the goat-anti-mouse IgG linking with horse radish peroxidase (HRP) and tetramethylbenzidine (TMB) were added sequentially in the well to evaluate the level of substrate phosphorylation by the degree of color depth. In the experiment, a blank group without tyrosine kinase and a control group with the corresponding concentration of DMSO were established. Finally, 50 μL/well of H2SO4 at a concentration of 0.18M was added in each well to stop the reaction. The optical density (OD) of each sample was measured in a micro-plate reader at 450 nm.
(§4) The relative inhibition rate of the compound against tyrosine kinase protein was determined.
(§5) According to the inhibition rates at different concentrations, IC50 was calculated by LOGIT method. The experiments were repeated three times, and the average of three IC50 values was the final index to evaluate the ability of inhibition.

A431 = assay: In vitro cell experiment (MTT), A431; assay type: cell-based; details: A-431, 72 h, human epidermoid carcinoma (EGFR1 overexpressing)
Protocol: as §1, §2

PDGFRβ = PDGFRβ (Homo sapiens, UniProt P09619); assay: In vitro enzyme experiment (ELISA), PDGFRβ; assay type: biochemical; details: Poly (Glu, Tyr)4:1 substrate, 5 μM ATP
Protocol: PDGFRβ: Platelet-derived growth factor receptor β
as §3, §4, §5

AXL = AXL (Homo sapiens, UniProt P30530); assay: In vitro enzyme experiment (ELISA), AXL; assay type: biochemical; details: Poly (Glu, Tyr)4:1 substrate, 5 μM ATP
Protocol: as §3, with “AXL: Anaplastic lymphoma kinase Methods: ELISA:” for “ELISA:”, “nm. The relative inhibition rate of the compound against tyrosine kinase protein was determined. According to the inhibition rates at different concentrations, IC50 was calculated by LOGIT method. The experiments were repeated three times, and the average of three IC50 values was the final index to evaluate the ability of inhibition.” for “nm.”

3T3swiss = assay: In vitro cell experiment (MTT), 3T3swiss; assay type: cell-based; details: Fibroblast, 72 h, mouse fibroblasts (PDGFR overexpressing)
Protocol: as §1, §2

SK-OV-3 = assay: In vitro cell experiment (MTT), SK-OV-3; assay type: cell-based; details: 72 h, human ovarian carcinoma cells (EGFR2 overexpressing)
Protocol: as §1, §2

PC-9 = assay: In vitro cell experiment (MTT), PC-9; assay type: cell-based; details: 72 h, human non-small-cell lung carcinoma cells (EGFR1 19 exon mutation)
Protocol: as §1, §2

[1] = Mouse maximum tolerated dose (MTD) experiment; details: in vivo, mice, oral, administered 7 days then observed 7 days
Protocol: In the mouse MTD experiment, the mice were administrated with the present compounds.
Healthy mice, having a small difference in body's weights, were chosen. The chosen mice were placed in different layers of cages according to their body's weights. In each layer, the mice were randomly divided into groups. In each group, there were three mice.
The administration dosages were 1000, 500, 250, 125, 62.5 and 31.25 mg/kg respectively and each two dosages differed by a factor of 2. For each of administration dosages, three mice were allotted. The mice were administrated with the present compounds for 7 days and then observed for the next 7 days without the present compounds.
The present compounds were orally administrated with the mice according to the administration dosage and the body weight.

SGC7901 = assay: In vitro cell experiment (MTT), SGC7901; assay type: cell-based; details: SGC-7901, 72 h, human gastric carcinoma cells
Protocol: as §1, §2

Bel-7402 = assay: In vitro cell experiment (MTT), Bel-7402; assay type: cell-based; details: 72 h, human hepatoma carcinoma cells
Protocol: as §1, §2

TT = assay: In vitro cell experiment (MTT), TT; assay type: cell-based; details: 72 h, human thyroid carcinoma cells (RET C634W mutation)
Protocol: as §1, §2

CFPAC-1 = assay: In vitro cell experiment (MTT), CFPAC-1; assay type: cell-based; details: 72 h, human pancreatic carcinoma cells
Protocol: as §1, §2

A549 = assay: In vitro cell experiment (MTT), A549; assay type: cell-based; details: 72 h, human non-small-cell lung carcinoma cells (EGFR1 wildtype)
Protocol: as §1, §2

FGFR-1 = FGFR-1 (Homo sapiens, UniProt P11362); assay: In vitro enzyme experiment (ELISA), FGFR-1; assay type: biochemical; details: Poly (Glu, Tyr)4:1 substrate, 5 μM ATP
Protocol: FGFR-1: Fibroblast growth factor receptor 1
as §3, §4, §5

BTK = BTK (Homo sapiens, UniProt Q06187); assay: In vitro enzyme experiment (ELISA), BTK; assay type: biochemical; details: Poly (Glu, Tyr)4:1 substrate, 5 μM ATP
Protocol: BTK: Bruton tyrosine kinase
as §3, §4, §5

FLT-1 = FLT-1 (Homo sapiens, UniProt P17948); assay: In vitro enzyme experiment (ELISA), FLT-1; assay type: biochemical; details: Poly (Glu, Tyr)4:1 substrate, 5 μM ATP
Protocol: FLT-1: Human vascular endothelial growth factor receptor 1
as §3, §4, §5

KDR = KDR (Homo sapiens, UniProt P35968); assay: In vitro enzyme experiment (ELISA), KDR; assay type: biochemical; details: Poly (Glu, Tyr)4:1 substrate, 5 μM ATP
Protocol: KDR: Human vascular endothelial growth factor receptor 2
as §3, §4, §5

A498 = assay: In vitro cell experiment (MTT), A498; assay type: cell-based; details: 72 h, human renal carcinoma cells
Protocol: as §1, §2

EGFR = EGFR (Homo sapiens, UniProt P00533); assay: In vitro enzyme experiment (ELISA), EGFR; assay type: biochemical; details: Poly (Glu, Tyr)4:1 substrate, 5 μM ATP
Protocol: EGFR: Human epidermal growth factor receptor 1
as §3, §4, §5

HT-29 = assay: In vitro cell experiment (MTT), HT-29; assay type: cell-based; details: 72 h, human colon carcinoma cells (expressing both c-KIT and PDGFR)
Protocol: as §1, §2

Chain of FGFR-1 (P11362 22-822, species assumed): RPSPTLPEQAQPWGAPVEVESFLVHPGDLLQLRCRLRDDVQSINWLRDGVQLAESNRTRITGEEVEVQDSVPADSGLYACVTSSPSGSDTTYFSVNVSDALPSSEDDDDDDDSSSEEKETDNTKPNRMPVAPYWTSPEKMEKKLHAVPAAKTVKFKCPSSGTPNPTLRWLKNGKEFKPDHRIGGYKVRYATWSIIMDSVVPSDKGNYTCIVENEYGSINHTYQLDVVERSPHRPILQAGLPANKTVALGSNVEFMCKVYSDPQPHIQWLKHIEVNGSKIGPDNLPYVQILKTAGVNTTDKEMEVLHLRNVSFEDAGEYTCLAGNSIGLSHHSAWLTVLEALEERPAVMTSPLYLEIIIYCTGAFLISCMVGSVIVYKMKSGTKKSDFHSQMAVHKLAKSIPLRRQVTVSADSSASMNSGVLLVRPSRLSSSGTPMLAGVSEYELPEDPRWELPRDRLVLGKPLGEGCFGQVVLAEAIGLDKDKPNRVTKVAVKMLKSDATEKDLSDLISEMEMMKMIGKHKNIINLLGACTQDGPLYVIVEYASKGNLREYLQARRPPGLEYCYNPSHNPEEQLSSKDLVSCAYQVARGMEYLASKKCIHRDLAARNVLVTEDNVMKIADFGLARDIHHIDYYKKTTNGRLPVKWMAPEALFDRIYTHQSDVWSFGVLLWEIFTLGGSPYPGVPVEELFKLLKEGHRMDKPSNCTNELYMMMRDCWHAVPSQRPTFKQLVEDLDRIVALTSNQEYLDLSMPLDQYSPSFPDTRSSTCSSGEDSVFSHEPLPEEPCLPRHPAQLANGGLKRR
Chain of FLT-1 (P17948 27-1338): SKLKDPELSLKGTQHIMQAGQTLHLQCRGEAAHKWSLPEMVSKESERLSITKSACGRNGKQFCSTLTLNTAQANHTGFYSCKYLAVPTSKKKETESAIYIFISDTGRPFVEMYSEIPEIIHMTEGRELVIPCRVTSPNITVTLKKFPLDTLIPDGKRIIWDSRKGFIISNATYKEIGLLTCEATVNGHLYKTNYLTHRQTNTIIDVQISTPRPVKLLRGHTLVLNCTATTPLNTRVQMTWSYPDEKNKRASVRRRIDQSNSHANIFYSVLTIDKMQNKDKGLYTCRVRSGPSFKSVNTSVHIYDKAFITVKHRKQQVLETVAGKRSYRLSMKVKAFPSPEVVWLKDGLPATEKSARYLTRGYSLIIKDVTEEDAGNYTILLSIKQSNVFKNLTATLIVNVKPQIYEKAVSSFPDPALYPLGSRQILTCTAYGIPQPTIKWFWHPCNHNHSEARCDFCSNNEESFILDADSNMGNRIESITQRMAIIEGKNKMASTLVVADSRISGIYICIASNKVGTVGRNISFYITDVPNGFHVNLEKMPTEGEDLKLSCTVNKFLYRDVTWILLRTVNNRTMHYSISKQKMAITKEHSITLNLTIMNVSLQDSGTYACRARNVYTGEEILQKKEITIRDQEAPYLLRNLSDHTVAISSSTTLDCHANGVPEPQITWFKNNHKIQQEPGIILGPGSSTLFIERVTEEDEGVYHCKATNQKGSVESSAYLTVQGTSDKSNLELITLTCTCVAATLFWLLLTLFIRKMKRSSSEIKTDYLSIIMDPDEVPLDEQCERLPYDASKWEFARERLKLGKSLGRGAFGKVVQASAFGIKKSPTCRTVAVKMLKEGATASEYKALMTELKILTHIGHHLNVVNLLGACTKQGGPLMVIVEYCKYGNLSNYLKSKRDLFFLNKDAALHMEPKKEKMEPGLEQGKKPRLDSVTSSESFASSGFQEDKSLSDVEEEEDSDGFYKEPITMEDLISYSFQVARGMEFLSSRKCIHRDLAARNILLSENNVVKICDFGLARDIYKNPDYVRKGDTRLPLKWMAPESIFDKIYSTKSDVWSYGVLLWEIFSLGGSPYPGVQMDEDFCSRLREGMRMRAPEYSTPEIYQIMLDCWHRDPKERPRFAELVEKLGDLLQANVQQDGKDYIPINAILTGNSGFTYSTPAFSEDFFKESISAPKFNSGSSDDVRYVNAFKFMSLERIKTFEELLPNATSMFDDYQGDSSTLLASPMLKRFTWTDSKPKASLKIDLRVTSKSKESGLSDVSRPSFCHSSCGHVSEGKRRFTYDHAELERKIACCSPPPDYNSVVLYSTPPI
Chain of RET (P07949 29-1114, species assumed): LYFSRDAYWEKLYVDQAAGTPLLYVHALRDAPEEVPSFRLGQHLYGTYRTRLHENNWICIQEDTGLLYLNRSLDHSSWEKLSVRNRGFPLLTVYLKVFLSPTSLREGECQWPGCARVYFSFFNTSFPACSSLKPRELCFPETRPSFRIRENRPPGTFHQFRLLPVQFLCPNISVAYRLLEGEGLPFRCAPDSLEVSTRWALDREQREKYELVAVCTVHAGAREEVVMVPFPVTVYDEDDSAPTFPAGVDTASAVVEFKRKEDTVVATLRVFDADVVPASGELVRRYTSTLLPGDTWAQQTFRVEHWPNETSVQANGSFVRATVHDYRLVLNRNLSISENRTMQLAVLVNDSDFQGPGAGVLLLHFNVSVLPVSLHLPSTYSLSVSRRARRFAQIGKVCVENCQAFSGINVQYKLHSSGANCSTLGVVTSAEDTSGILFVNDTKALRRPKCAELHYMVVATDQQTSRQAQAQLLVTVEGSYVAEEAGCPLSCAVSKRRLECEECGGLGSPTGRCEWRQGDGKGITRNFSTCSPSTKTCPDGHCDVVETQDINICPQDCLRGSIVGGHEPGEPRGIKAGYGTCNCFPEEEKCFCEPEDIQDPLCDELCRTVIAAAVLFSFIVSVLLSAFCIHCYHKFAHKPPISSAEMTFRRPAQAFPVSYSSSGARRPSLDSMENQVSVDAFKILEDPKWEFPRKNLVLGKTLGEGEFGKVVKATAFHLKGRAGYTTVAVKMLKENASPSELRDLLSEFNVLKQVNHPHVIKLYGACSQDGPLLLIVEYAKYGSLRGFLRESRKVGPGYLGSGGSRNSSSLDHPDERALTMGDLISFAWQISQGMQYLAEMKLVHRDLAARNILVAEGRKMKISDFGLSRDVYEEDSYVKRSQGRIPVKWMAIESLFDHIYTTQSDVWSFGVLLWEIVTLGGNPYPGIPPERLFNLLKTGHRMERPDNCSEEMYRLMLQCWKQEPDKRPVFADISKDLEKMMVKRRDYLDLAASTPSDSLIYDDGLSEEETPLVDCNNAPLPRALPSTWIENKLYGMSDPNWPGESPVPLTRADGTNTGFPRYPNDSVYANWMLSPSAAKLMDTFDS
Chain of KDR (P35968 20-1356): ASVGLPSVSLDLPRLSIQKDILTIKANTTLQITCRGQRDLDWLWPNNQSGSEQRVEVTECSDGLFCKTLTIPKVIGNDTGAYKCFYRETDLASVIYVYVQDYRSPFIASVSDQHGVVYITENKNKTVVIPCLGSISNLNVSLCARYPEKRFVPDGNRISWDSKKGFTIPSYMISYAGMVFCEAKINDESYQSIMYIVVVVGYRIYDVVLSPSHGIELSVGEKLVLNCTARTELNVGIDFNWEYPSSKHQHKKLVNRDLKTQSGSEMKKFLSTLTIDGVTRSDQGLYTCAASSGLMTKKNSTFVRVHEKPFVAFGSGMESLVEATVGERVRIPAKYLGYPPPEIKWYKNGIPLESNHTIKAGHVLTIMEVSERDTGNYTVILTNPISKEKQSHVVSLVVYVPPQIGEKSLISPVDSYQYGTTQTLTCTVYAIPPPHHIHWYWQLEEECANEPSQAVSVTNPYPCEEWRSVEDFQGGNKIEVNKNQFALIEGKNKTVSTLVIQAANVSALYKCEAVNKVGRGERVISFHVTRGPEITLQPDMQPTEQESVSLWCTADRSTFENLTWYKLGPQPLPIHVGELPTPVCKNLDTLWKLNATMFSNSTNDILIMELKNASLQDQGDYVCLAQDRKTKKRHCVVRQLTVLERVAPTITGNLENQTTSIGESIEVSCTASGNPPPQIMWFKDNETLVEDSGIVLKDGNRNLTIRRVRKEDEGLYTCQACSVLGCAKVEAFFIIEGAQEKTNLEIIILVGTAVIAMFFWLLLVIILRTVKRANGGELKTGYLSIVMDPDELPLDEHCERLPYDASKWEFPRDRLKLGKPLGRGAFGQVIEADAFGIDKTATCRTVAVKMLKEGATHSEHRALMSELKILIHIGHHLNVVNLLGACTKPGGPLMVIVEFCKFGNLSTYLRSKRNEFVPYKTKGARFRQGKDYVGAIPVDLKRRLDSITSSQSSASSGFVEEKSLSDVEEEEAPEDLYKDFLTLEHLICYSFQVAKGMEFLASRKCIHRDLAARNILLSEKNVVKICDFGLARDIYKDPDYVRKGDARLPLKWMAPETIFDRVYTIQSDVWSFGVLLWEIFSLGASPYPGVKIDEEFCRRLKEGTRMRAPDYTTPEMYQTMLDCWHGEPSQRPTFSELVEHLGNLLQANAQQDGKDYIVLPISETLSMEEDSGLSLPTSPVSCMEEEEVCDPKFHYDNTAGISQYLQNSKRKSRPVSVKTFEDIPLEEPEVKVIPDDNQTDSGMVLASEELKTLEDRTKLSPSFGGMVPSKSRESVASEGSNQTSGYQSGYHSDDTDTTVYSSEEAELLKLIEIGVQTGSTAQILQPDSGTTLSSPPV
Chain of AXL (P30530 473-894): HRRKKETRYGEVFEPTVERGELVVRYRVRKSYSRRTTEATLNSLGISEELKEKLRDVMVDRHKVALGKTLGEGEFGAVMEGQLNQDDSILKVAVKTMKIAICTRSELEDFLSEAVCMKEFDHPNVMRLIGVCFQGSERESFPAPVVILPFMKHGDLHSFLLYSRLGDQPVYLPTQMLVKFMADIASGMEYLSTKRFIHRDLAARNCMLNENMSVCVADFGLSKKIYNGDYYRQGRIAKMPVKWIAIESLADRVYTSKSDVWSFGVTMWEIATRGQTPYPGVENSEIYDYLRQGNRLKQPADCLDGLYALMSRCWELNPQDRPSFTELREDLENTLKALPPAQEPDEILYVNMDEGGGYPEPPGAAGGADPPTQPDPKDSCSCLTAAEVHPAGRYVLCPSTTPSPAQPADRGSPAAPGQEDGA

Compound	IC50 (H292) [nM]	IC50 (HCT116) [nM]	IC50 (A375) [nM]	IC50 (Eca109) [nM]	IC50 (HUVEC) [nM]	IC50 (HCC827) [nM]	IC50 (RET) [nM]	IC50 (A431) [nM]	IC50 (PDGFRβ) [nM]	IC50 (AXL) [nM]	IC50 (3T3swiss) [nM]	IC50 (SK-OV-3) [nM]	IC50 (PC-9) [nM]	IC50 (SGC7901) [nM]	IC50 (Bel-7402) [nM]	IC50 (TT) [nM]	IC50 (CFPAC-1) [nM]	IC50 (A549) [nM]	IC50 (A498) [nM]	IC50 (HT-29) [nM]	further results
COc1cc2c(Nc3ccc(Br)cc3F)ncnc2cc1OCCN1CCCC1 [Compound 2, 4-(4-bromo-2-fluoroanilino)-6-methoxy-7-((2-pyrrolidine-1-yl)ethoxy)quinazoline]	46.3	1080	185	5800	40.4	5.6															
COc1cc2c(Nc3ccc(Br)cc3F)ncnc2cc1OCCCN1CCCC1 [Compound 19, 4-(4-bromo-2-fluoroanilino)-6-methoxy-7-(3-(pyrrolidine-1-yl)propoxy)quinazoline]	38.2	561	112	4650	21.2	0.1	9.1	1060	113	1550	1090	1960	6.3	2760	3590	110	4080	1430	2060	1660	MTD [1]: 250 to 500 mg/kg; IC50 (FGFR-1): 15.7 nM; IC50 (BTK): 220 nM; IC50 (FLT-1): 25.6 nM; IC50 (KDR): 10.6 nM; IC50 (EGFR): 66.3 nM
COc1cc2c(Nc3ccc(Br)cc3F)ncnc2cc1OCCCCN(C)C [Compound 28, 4-(4-bromo-2-fluoroanilino)-6-methoxy-7-(4-(dimethylamino)-butoxy)quinazoline]	66.6	704	108	4880	20.1	0.1	13.5	1360	156	1470	1610	1830	9.3	3960	4900	118	4470	1920	2270	1470	MTD [1]: 250 to 500 mg/kg; IC50 (FGFR-1): 17.8 nM; IC50 (BTK): 278 nM; IC50 (FLT-1): 27.4 nM; IC50 (KDR): 18.4 nM; IC50 (EGFR): 90.4 nM
COc1cc2c(Nc3ccc(Br)cc3F)ncnc2cc1OCCCN(C)C [Compound 29, 4-(4-bromo-2-fluoroanilino)-6-methoxy-7-(3-(dimethylamino)-propoxy)quinazoline]	45.6	652	102	5420	23.8	0.6	13.4	2740	246	1830	1370	2560	7.1	4450	5880	127	5150	2160	2360	2170	MTD [1]: 125 to 250 mg/kg; IC50 (FGFR-1): 24.6 nM; IC50 (BTK): 260 nM; IC50 (FLT-1): 30.8 nM; IC50 (KDR): 17.4 nM; IC50 (EGFR): 127 nM
COc1cc2c(Nc3ccc(Cl)cc3F)ncnc2cc1OCCCN1CCCC1 [Compound 44, 4-(2-fluoro-4-chloroanilino)-6-methoxy-7-(3-(pyrrolidin-1-yl)-propoxy)quinazoline, reference compound]	124	988	315	6980	198		23.4	3570	306	2990	2900	4030	16.8	5250	9680	257	6720	4900	3050	3460	IC50 (FGFR-1): 39.8 nM; IC50 (BTK): 424 nM; IC50 (FLT-1): 51.2 nM; IC50 (KDR): 40.5 nM
COc1cc2c(Nc3ccc(Br)cc3F)ncnc2cc1OCCCN1CCCCC1 [Compound 45, 4-(2-fluoro-4-bromoanilino)-6-methoxy-7-(3-(piperidin-1-yl)-propoxy)quinazoline, reference compound]	105	1060	290	7020	187	9.7	27.5	4150	328	2990	3790	4990	18.7	6260	6260	314	6720	5020	3150	3410	IC50 (FGFR-1): 41.6 nM; IC50 (BTK): 414 nM; IC50 (FLT-1): 50.1 nM; IC50 (KDR): 38.6 nM; IC50 (EGFR): 159 nM
COc1cc2c(Nc3ccc(Br)cc3F)ncnc2cc1OCC1CCN(C)CC1 [Vandetanib, reference compound]	167	1210		6860		19.3		3230			2530	3510	14.9	6850	6850	192	6260	4450	2960	3230	
